Results published in PubChem BioAssay (NCI).
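These data come from cells grown in 96-well plates and exposed to compound for 48 hours at five concentrations. TGI is the concentration that stops growth completely.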

Key:
Assay in all cases: DTP human tumour cell line panel, 48 h
HCT-15 colon = system: HCT-15 colon
CAKI-1 renal = system: CAKI-1 renal
SF-268 CNS = system: SF-268 CNS
LOX IMVI melanoma = system: LOX IMVI melanoma
PC-3 prostate = system: PC-3 prostate
MDA-MB-231 breast = system: MDA-MB-231 breast
NCI-H23 lung = system: NCI-H23 lung
SNB-75 CNS = system: SNB-75 CNS
COLO 205 colon = system: COLO 205 colon
A498 renal = system: A498 renal
DU-145 prostate = system: DU-145 prostate
HL-60(TB) leukemia = system: HL-60(TB) leukemia
CCRF-CEM leukemia = system: CCRF-CEM leukemia
MDA-N = system: MDA-N
OVCAR-3 ovarian = system: OVCAR-3 ovarian
IGROV1 ovarian = system: IGROV1 ovarian
BT-549 breast = system: BT-549 breast
SF-295 CNS = system: SF-295 CNS
NCI-H522 lung = system: NCI-H522 lung
786-0 renal = system: 786-0 renal
SK-MEL-28 melanoma = system: SK-MEL-28 melanoma
KM12 colon = system: KM12 colon
RPMI-8226 leukemia = system: RPMI-8226 leukemia
HT29 colon = system: HT29 colon
HCT-116 colon = system: HCT-116 colon
RXF 393 renal = system: RXF 393 renal
UACC-62 melanoma = system: UACC-62 melanoma
HOP-62 NSCLC = system: HOP-62 NSCLC
ACHN renal = system: ACHN renal
MCF7 breast = system: MCF7 breast
UACC-257 melanoma = system: UACC-257 melanoma
SW-620 colon = system: SW-620 colon
SK-OV-3 ovarian = system: SK-OV-3 ovarian
OVCAR-8 ovarian = system: OVCAR-8 ovarian
HS 578T breast = system: HS 578T breast
TK-10 renal = system: TK-10 renal
HOP-92 NSCLC = system: HOP-92 NSCLC
SK-MEL-5 melanoma = system: SK-MEL-5 melanoma
SNB-19 CNS = system: SNB-19 CNS
A549 NSCLC = system: A549 NSCLC
NCI-H226 lung = system: NCI-H226 lung
SK-MEL-2 melanoma = system: SK-MEL-2 melanoma
MALME-3M melanoma = system: MALME-3M melanoma
SF-539 CNS = system: SF-539 CNS
K-562 leukemia = system: K-562 leukemia
UO-31 renal = system: UO-31 renal
MDA-MB-435 = system: MDA-MB-435
M14 melanoma = system: M14 melanoma
NCI/ADR-RES ovarian = system: NCI/ADR-RES ovarian
SN12C renal = system: SN12C renal
SR leukemia = system: SR leukemia
HCC-2998 colon = system: HCC-2998 colon
T-47D breast = system: T-47D breast
NCI-H460 lung = system: NCI-H460 lung
MOLT-4 leukemia = system: MOLT-4 leukemia
OVCAR-5 ovarian = system: OVCAR-5 ovarian
EKVX NSCLC = system: EKVX NSCLC

With NNC(=O)c1c(Cl)c(Cl)c(Cl)c(Cl)c1-c1nc2ccccc2[nH]1 the TGI (HCT-15 colon) was 40.9 µM, the TGI (CAKI-1 renal) was 38 µM and the TGI (SF-268 CNS) was > 100 µM. For the same compound, the TGI (LOX IMVI melanoma) was 30.3 µM, the TGI (PC-3 prostate) was > 100 µM and the TGI (MDA-MB-231 breast) was > 100 µM. The TGI (NCI-H23 lung) was 59.5 µM, the TGI (SNB-75 CNS) was 38.2 µM and the TGI (COLO 205 colon) was 62 µM. It also gave a TGI (A498 renal) of 49.9 µM, a TGI (DU-145 prostate) of 38.3 µM and a TGI (HL-60(TB) leukemia) of 38.1 µM. For the same compound, the TGI (CCRF-CEM leukemia) was 54.2 µM, the TGI (MDA-N) was 18.9 µM and the TGI (OVCAR-3 ovarian) was 24.4 µM. For the same compound, the TGI (IGROV1 ovarian) was 27.7 µM, the TGI (BT-549 breast) was 46.5 µM and the TGI (SF-295 CNS) was 24 µM. For the same compound, the TGI (NCI-H522 lung) was > 100 µM, the TGI (786-0 renal) was 55.8 µM and the TGI (SK-MEL-28 melanoma) was 53.4 µM. The TGI (KM12 colon) was 29.1 µM, the TGI (RPMI-8226 leukemia) was > 100 µM and the TGI (HT29 colon) was 61.8 µM. The TGI (HCT-116 colon) was 32.6 µM, the TGI (RXF 393 renal) was 21.9 µM and the TGI (UACC-62 melanoma) was 24.7 µM. It also gave a TGI (HOP-62 NSCLC) of 21.4 µM, a TGI (ACHN renal) of 67.2 µM and a TGI (MCF7 breast) of 23 µM. The TGI (UACC-257 melanoma) was 28.1 µM, the TGI (SW-620 colon) was 67.6 µM and the TGI (SK-OV-3 ovarian) was 59.2 µM. For the same compound, the TGI (OVCAR-8 ovarian) was > 100 µM, the TGI (HS 578T breast) was 86.8 µM and the TGI (TK-10 renal) was 63.2 µM. It also gave a TGI (HOP-92 NSCLC) of 43.9 µM, a TGI (SK-MEL-5 melanoma) of 29.9 µM and a TGI (SNB-19 CNS) of 88.8 µM. For the same compound, the TGI (A549 NSCLC) was 45.7 µM, the TGI (NCI-H226 lung) was 65.4 µM and the TGI (SK-MEL-2 melanoma) was 29.4 µM. For the same compound, the TGI (MALME-3M melanoma) was 37.9 µM, the TGI (SF-539 CNS) was > 100 µM and the TGI (K-562 leukemia) was 26 µM. The TGI (UO-31 renal) was 39.5 µM, the TGI (MDA-MB-435) was 6.38 µM and the TGI (M14 melanoma) was 23.6 µM. For the same compound, the TGI (NCI/ADR-RES ovarian) was 59.8 µM, the TGI (SN12C renal) was > 100 µM and the TGI (SR leukemia) was 15.6 µM. It also gave a TGI (HCC-2998 colon) of 22.5 µM, a TGI (T-47D breast) of 24 µM and a TGI (NCI-H460 lung) of 31 µM. For the same compound, the TGI (MOLT-4 leukemia) was 26.3 µM, the TGI (OVCAR-5 ovarian) was > 100 µM and the TGI (EKVX NSCLC) was 45.3 µM.
